`CCNC(=O)c1cc2ccccc2[nH]1`: the logP is 2.32.
`CCNC(=O)c1c[nH]c2ccccc12`: the logP came out at 1.62.
The molecule `CNC(=O)c1cccn1C` yielded a logP of 0.71.
Then `O=[N+]([O-])c1cncnc1`, with -0.05.
For `CNC(=O)c1cc2ccccc2[nH]1`, the logP stood at 1.9.
`CCCNC(=O)c1cccn1C` had a logP of 1.63.
Regarding `CCNC(=O)c1cc2ccccc2o1`, the logP turned out to be 2.22.
`CCCNC(=O)c1ccoc1` gave a logP of 1.2.
Consider `CCCNC(=O)c1ccc[nH]1`, for which the logP was found to be 1.25.
Molecule `Cn1cccc1C(N)=O` returned a logP of 0.45.
Molecule `CCNC(=O)c1ccc[nH]1` registered a logP of 0.8.
`CCCNC(=O)c1cc2ccccc2o1` came in with a logP of 2.65.
Then `NC(=O)c1ccc[nH]1`, with 0.09.
Consider `CCOC(=O)c1cc2ccccc2o1`, for which the log partition coefficient (logP) was 3.05.
As for `CCOC(=O)c1ccc[nH]1`, the logP was determined as 1.73.
The molecule `COC(=O)c1cccn1C` returned a log partition coefficient (logP) of 1.8.
`CNC(=O)c1cc2ccccc2o1` yielded a logP of 1.85.
With `CCNC(=O)c1cccn1C`, the logP came out at 1.09.
Molecule `CCOC(=O)c1cc2ccccc2[nH]1` came in with a logP of 3.22.
For `CCCNC(=O)c1cc2ccccc2[nH]1` the value was 2.8; for `CNC(=O)c1c[nH]c2ccccc12`, 1.25.
`CNC(=O)c1ccc[nH]1` displayed a logP of 0.42.

Values taken from the OPERA property sets (Mansouri et al. 2018).
